Entries after “also recorded” stand apart in the source; their conditions may differ.
Assays:
Format in all cases: cell-based, Human
p21 promoter = test: p21Luciferase stable U2OS cell line
Method: (§1) Cells were co-transfected with 1 μg of the plasmid of interest and 4 μg of pCDNA3, which contains the resistance gene against neomycin for 6 hours. They were washed once with PBS and cultured in medium supplemented with neomycin. Twenty four hours later they were split and plated at different dilutions (from 1:50 to 1:200) in medium containing neomycin. The medium was changed every three days for two weeks until colonies formed. Colonies were picked and sub-cultured into a 24-well plate. After proliferation of each colony, cells were characterized either by luciferase assays or by western blotting according to the cell line.
(§2) Twenty four hours after transfection, the cells were lysed in Reporter Lysis buffer supplied by Promega and assayed using the Luciferase assay kit (Promega), measuring luciferase activity with the Autolumat Plus (Berthold technologies). The fold activation of a particular reporter was determined by the activity of the transfected plasmid divided by the activity of vector alone. The fold increase of activity in response to drug treatment was obtained by the activity in the presence of drug divided by the activity of the untreated sample.
(§3) Pig3Luciferase, Pig3-delFLuciferase (similar to the Pig3 promoter but without the p53 binding site), p21Luciferase, MDM2Luciferase reporters were used to generate four cell lines in U2OS cells.

ASPP2 promoter = ASPP2 promoter luciferase stable U2OS cell line
Method: as §1, §2
(§4) ASPP might respond to drugs in many ways in cells. To start investigating this, stable cell lines expressing luciferase under the control of the ASPP1 or ASPP2 promoters were created in U2OS cells. For each cell line, two clones were tested with the six drugs used previously. […] At the same time, these cell lines were used to titrate drugs.

Pig3 promoter = test: Pig3Luciferase stable U2OS cell line
Method: as §1, §2, §3

[1] = tested on: proapoptotic promoter Pig3; test: Pig3Luciferase reporter transactivation, transient transfection in U2OS cells; details: treated 24 hours
Method: (§5) Adherent cells were grown to a confluence of 70-80% in fresh medium. Cells were plated 24 hours prior to the transfection procedure. The medium on the dishes was replaced with 3 ml of fresh medium 15-30 minutes before the transfection. 2×HBS buffer (280 mM NaCl, 10 mM KCL, 1.4 mM Na2HPO4.2H2O, 12 mM glucose, 39 mM HEPES, adjusted to a pH 6.9-7.3) was diluted in sterile water to a concentration of 1× in a final volume of 300 μl. The required amount of DNA was added using sterile Gilson tips and mixed thoroughly. To form the precipitate, 12.5 μl of 2.5 M CaCl2 was added to the transfection mix and left at room temperature for 12-15 minutes. Six hours later dishes were washed with medium without serum once before adding 3 ml of fresh medium supplemented with 10% serum until further analysis of cells.
as §2
Some of the drugs commonly used in cancer therapy are known to stimulate p53 transactivation activity. To test their effect on a proapoptotic promoter specifically transactivated by p53, U2OS and MCF7 cells (both wild type p53) were transiently transfected with the proapoptotic reporter Pig3Luciferase and then treated for 24 hours with eight different compounds (FIGS. 1A and 1B).
Si—RNA cloned into pSuper plasmid (Brummelkamp et al., Science. 296(5567):550-3, 2002) was transiently transfected with the Pig3 reporter into U2OS cells treated with doxorubicin or cisplatin (FIG. 3A).

MDM2 promoter = test: MDM2Luciferase stable U2OS cell line
Method: as §1, §2, §3

ASPP1 promoter = ASPP1 promoter luciferase stable U2OS cell line
Method: as §1, §2, §4

[2] = tested on: proapoptotic promoter Pig3; test: Pig3Luciferase reporter transactivation, transient transfection in MCF7 cells; details: treated 24 hours
Method: as §5
as §2, with “sample. […]” for “sample.”

deleted Pig3 promoter = test: Pig3-delFLuciferase stable U2OS cell line (no p53 binding site)
Method: as §1, §2, §3

[3] = drug titration, regardless of the concentration

Row | Structure (SMILES) | p21 promoter activity (p21 promoter) | Pig3-Luciferase activity (Pig3 promoter) | Pig3 promoter activity went up by [1] | ability of p53 to transactivate the Pig3 promoter [1] | MDM2 promoter activity (MDM2 promoter) | ASPP1Luciferase reporter activity (ASPP1 promoter; [3]) | ASPP2 promoter activity (ASPP2 promoter; stable U2OS, clone 4) | ability of p53 to transactivate the Pig3 promoter [2] | other results
1 | N.N.[Cl][Pt][Cl] [cisplatin] | did not affect | did not affect | 2.9 fold | did not have the same efficiency as doxorubicin | did not affect | little effect | – | – | ASPP2 promoter activity (ASPP2 promoter; clone 4, drug titration): no effect
2 | O=c1[nH]cc(F)c(=O)[nH]1 [5-Fluorouracil] | – | – | – | able to induce such induction | – | – | – | – | ASPP2 promoter activation (ASPP2 promoter; clone 4, titration, at 40 μg/ml): 3 fold; Pig3 promoter activity induced by (Pig3 promoter): three; effect on the MDM2 promoter (MDM2 promoter): 7 fold; concentration inducing the maximum ASPP1Luciferase reporter activity (ASPP1 promoter; drug titration): 40 µg/mL; ASPP1 promoter activity (ASPP1 promoter; stable U2OS, two clones, after 24 hours, listed as 5-fluorouracil): activates
3 | CO[C@@]12[C@H](COC(N)=O)C3=C(C(=O)C(C)=C(N)C3=O)N1C[C@@H]1N[C@@H]12 [mitomycin C] | did not affect | did not affect | – | – | did not affect | – | – | – | –
4 | COc1cccc2c1C(=O)c1c(O)c3c(c(O)c1C2=O)C[C@@](O)(C(C)=O)C[C@@H]3O[C@H]1C[C@H](N)[C@H](O)[C@H](C)O1 [daunorubicin] | not p21 or MDM2 | specifically stimulated | 34.7 fold | strongly increased | not p21 or MDM2 | little effect | stimulated | strongly increased | ASPP2 promoter activity increase (ASPP2 promoter; clone 4, titration, at 150 ng/ml): 4 fold
5 | COc1cccc2c1C(=O)c1c(O)c3c(c(O)c1C2=O)C[C@@](O)(C(=O)CO)C[C@@H]3O[C@H]1C[C@H](N)[C@H](O)[C@H](C)O1 [doxorubicin] | not p21 or MDM2 | respond; also recorded: specifically stimulated | – | strongly increased | not p21 or MDM2 | – | stimulated | strongly increased | ASPP2 promoter activity (ASPP2 promoter; FIGS. 4A and 4B (both clones)): activates; ASPP2 promoter activity, increase over the control (ASPP2 promoter; clone 4, titration, at 2 μM (highest effect)): 10 fold; ASPP2 promoter activity (ASPP2 promoter; stable U2OS, clone 3): had an effect; ASPP1Luciferase reporter activity (ASPP1 promoter; drug titration, at 2 μM): 2 fold; toxicity in ASPP1Luciferase cells (ASPP1 promoter; drug titration, concentration reached 3 μM): toxic; activity of the deleted Pig3 promoter (deleted Pig3 promoter): did not affect
6 | COc1cc([C@@H]2c3cc4c(cc3[C@@H](O[C@@H]3O[C@@H]5CO[C@@H](C)O[C@H]5[C@H](O)[C@H]3O)[C@H]3COC(=O)[C@H]23)OCO4)cc(OC)c1O [etoposide] | did not affect | did not affect | – | – | did not affect | – | – | – | –
